Several values for one entry are separate records, joined by “and”; a condition that tells them apart may be missing. Identical values can stand only once. Strand notation (5' to 3'): a small letter for the sugar, then the base; units joined by * are phosphorothioate-linked, units joined directly phosphodiester-linked; [ ] holds rarer units or linkages, { } end groups; capitals alone tell only the bases. [NM031] = nucleoside analogue NM031 of the disclosure, C16 lipid conjugate (uridine-based); {VP} = (thio)vinylphosphonate on the antisense 5' nucleotide, as listed; m = 2'-O-methyl; f = 2'-fluoro
Experiments:
[1] = test system: target gene SOD1; test: Test Example 3: inhibitory activity of lipid conjugated siRNA sequences on SOD1 by lateral ventricle administration to mice; type: in vivo, C57BL/6j mice; settings: 200 μg per mouse, D5
Method: 6-8 Week-old C57BL/6j mice were randomly grouped by body weight. Mice in each group were administered with siRNA by lateral ventricle administration, with an administration dose per mouse depending on a specific test. Taking Bregma in mouse brain as point 0 (origin), coordinates of right ventricle were found using the cerebral stereotaxic apparatus and position was marked on surface of skull (position of lateral ventricle was AP (anteroposterior, bregma anterior and posterior): −0.58 mm, ML (mediolateral, left and right of middle raphe): −1.2 mm, DV (dorsoventral, up and down cerebral dura mater plane): −2.2 mm). A dental electric drill was used to drill in the skull above a position of interest, and then medicament was injected into the lateral ventricle by a micro-dosing pump, wherein a total injection volume was 5 μL, and injection duration was 10 min. Needle was retained for 5 min after completion of injection, and then slowly withdrawn. Afterwards, needle hole was sealed with biomedical glue, and then head skin was adhered. After animals woke up, the animals were returned back to animal house and further fed. PBS control group was administered with the same volume of siRNA-free PBS solution. The day of administration was recorded as 0 day (D0), and the mice were sacrificed at observation point after the administration. Different parts of brain region were respectively taken and stored in the RNAlater.
(§1) RNA extraction: the above tissue samples were taken out from the RNAlater, and smashed for 60 s in Tissuelyser type II full-automatic tissue homogenizer, and total RNAs of various tissue samples were extracted using the full-automatic nucleic acid extraction instrument and the nucleic acid extraction kit from Zhejiang Hanwei Science and Technology Co. Ltd. according to methods described in instructions.
(§2) Reverse transcription reaction: 1 μg of the extracted total RNAs of the tissue samples were taken, and configured into 20 μL of reverse transcription system according to a method described in kit instructions by using a reverse transcription kit (Reverse Transcription System, A3500) from Promega Corporation and selecting Oligo (dT)15 reverse transcription primers, and the reverse transcription reaction was completed. After the reaction was ended, 80 μL of RNase-Free water was added into the reverse transcription system to provide cDNA solution for Real-time PCR detection.
(§3) Real-time PCR detection: 20 μL of Real-time PCR reaction system per PCR detection well was configured according to a method described in kit instructions using SYBR™ Select Master Mix (Catalog number: 4472908) reagent from ABI company. Each detection system contained 5 μL of cDNA template obtained from the above reverse transcription reaction, 10 μL of SYBR™ Select Master Mix, 0.5 μL of 10 μM upstream primers, 0.5 μL of 10 μM downstream primers, and 4 μL of RNase-Free H2O. The configured reaction system was subjected to Real-time PCR amplification on ABI StepOnePlus PCR instrument by a three-step method, wherein an amplification procedure was pre-denaturation at 95° C. for 10 min, then denaturation at 95° C. for 30 s, annealing at 60° C. for 30 s, and extension at 72° C. for 30 s; and processes of denaturation, annealing, and extension were repeated for 40 cycles. Gene expression differences were calculated by the ΔΔCt method after completion of the procedure.
In the real-time fluorescence quantitative PCR method, relative quantitative calculation of remaining expression level and inhibition rate of gene mRNA of interest in various test groups was performed by the ΔΔCt method, and the calculation method is as follows: […]

[2] = test system: target gene SOD1; test: Test Example 5: inhibitory activity of lipid conjugated siRNA sequences on SOD1 by intrathecal administration to rats; type: in vivo, SD rats; design: key to Lumbar segmen Mean value of inhibition rate / Cortex Mean value of inhibition rate / Thoracic segment Mean value of inhibition rate / Cervical segment Mean value of inhibition rate / Cerebellum Mean value of inhibition rate / Hippocampus Mean value of inhibition rate: inhibition rate of SOD1 mRNA, calculated by the ΔΔCt method; settings: D7
Method: 6-8 Week-old SD rats were randomly grouped by body weight. Rats in each group were administered with siRNA by intrathecal administration, with an administration dose of 900 μg per rat. Injection was administered from rat spinal cord L5-L6, with an administration volume of 40 μL. Needle was retained for 2 min after completion of injection, and then slowly withdrawn. PBS control group was administered with the same volume of siRNA conjugate-free PBS solution. The day of administration was recorded as 0 day (D0), and the rats were sacrificed at observation point after administration. Different segments of spinal cord and different regions of brain were respectively taken and stored in the RNAlater.
as §1, §2, §3
In the real-time fluorescence quantitative PCR method, relative quantitative calculation of remaining expression level and inhibition rate of gene mRNA of interest in various test groups was performed by the ΔΔCt method, and the calculation method is as follows:
The present example evaluated, by an evaluation method for inhibitory activity on a target gene by intrathecal administration to rats, the inhibitory activity of siRNA sequence RZ899060 with the sense strand with the NM031 conjugation at Position 4 and vector-free siRNA sequence RZ899056, and Uhd conjugated siRNA reference sequence RZ899055 on the target gene SOD1 of interest in spinal cord and brain of rats.
6-8 Week-old SD rats were randomly grouped by body weight, 5 per group, 4 groups in total. Rats in each group were dosed with the above siRNA conjugates by intrathecal administration, with an administration dose of 900 μg per rat, and an administration volume of 40 μL. PBS control group was administered with the same volume of siRNA conjugate-free PBS solution. The day of administration was recorded as 0 day (D0), and the rats were sacrificed on D7 after administration. […]

RZ899060: siRNA sequence with the sense strand with the NM031 conjugation at Position 4; SEQ ID NO: 3 / 22 (sense mU*mU*mU[NM031]mAmAfUfCfCmUmCmAmCmUmCmUmAmAmA; antisense {VP}-mU*fU*mUmAmGfAmGmUmGmAmGmGmAfUmUfAmAmAmA*mU*mG)
Cerebellum Mean value of inhibition rate % ([1]; cerebellum): 56.11% | Cortex Mean value of inhibition rate % ([1]; cortex): 79.05% | Hippocampus Mean value of inhibition rate % ([1]; hippocampus): ≥ 90% and 90.98% | Cerebellum Mean value of inhibition rate ([2]; cerebellum, intrathecal, 900 μg per rat): 55.10 | Cortex Mean value of inhibition rate ([2]; cerebral cortex, intrathecal, 900 μg per rat): 43.00 | activity compared with the reference sequence RZ899055 ([2]; hippocampus and cortex in the brain region, intrathecal 900 μg per rat): substantially comparable | Hippocampus Mean value of inhibition rate ([2]; hippocampus, intrathecal, 900 μg per rat): 47.77 | activity compared with the Uhd conjugated reference sequence RZ899055 ([2]; lumbar segment, intrathecal 900 μg per rat): substantially comparable | inhibitory activity in the spinal cord segments ([2]; lumbar, thoracic and cervical segment, intrathecal 900 μg per rat): ≥ 80% | Cervical segment Mean value of inhibition rate ([2]; spinal cord cervical segment, intrathecal, 900 μg per rat): 83.37 | Lumbar segmen Mean value of inhibition rate ([2]; spinal cord lumbar segment, intrathecal, 900 μg per rat): 84.24 | Thoracic segment Mean value of inhibition rate ([2]; spinal cord thoracic segment, intrathecal, 900 μg per rat): 94.54 | activity compared with the Uhd conjugated reference sequence RZ899055 ([2]; thoracic segment and cervical segment of spinal cord, intrathecal 900 μg per rat): superior

Reference: patent US20260132165A1, “MODIFIED NUCLEOSIDE ANALOGUE AND USE THEREOF, AND NUCLEOSIDE ANALOGUE-CONTAINING DOUBLE-STRANDED OLIGONUCLEOTIDE AND USE THEREOF” (RIGERNA THERAPEUTICS (BEIJING) CO., LTD., priority 2023, published 2026)
